Experimental data taken from US8754075B2, “1,3-oxazines as BACE1 and/or BACE2 inhibitors” (Hoffmann-La Roche Inc., priority 2011, dated 2014).

How the values were obtained:
[1] = biological target: BACE1 (Homo sapiens (Human), UniProt P56817); assay: Cellular Aβ-lowering assay; assay type: cell-based; settings: HEK293 cells stably expressing human APP wt (APP695); Aβ40 in supernatant by ELISA after 18-20 hrs
Experimental: Cellular Aβ-Lowering Assay: Human HEK293 cells which are stably transfected with a vector expressing a cDNA of the human APP wt gene (APP695) were used to assess the potency of the compounds in a cellular assay. The cells were seeded in 96-well microtiter plates in cell culture medium (Iscove, plus 10% (v/v) fetal bovine serum, glutamine, penicillin/streptomycin) to about 80% confluence and the compounds were added at a 10× concentration in 1/10 volume of medium without FCS containing 8% DMSO (final concentration of DMSO was kept at 0.8% v/v). After 18-20 hrs incubation at 37° C. and 5% CO2 in a humidified incubator the culture supernatant was harvested for the determination of Aβ40 concentrations. […] After blocking of non-specific binding sites with e.g. 1% BSA and washing, the culture supernatants were added in suitable dilutions together with a horseradish peroxidase-coupled Aβ detection antibody (e.g., antibody 4G8, Senetek, Maryland Heights, Mo.) and incubated for 5 to 7 hrs. Subsequently the wells of the microtiter plate were washed extensively with Tris-buffered saline containing 0.05% Tween 20 and the assay was developed with tetramethylbenzidine/H2O2 in citric acid buffer. After stopping the reaction with one volume […] the reaction was measured in an ELISA reader at 450 nm wavelength. The concentrations of Aβ in the culture supernatants were calculated from a standard curve obtained with known amounts of pure Aβ peptide.

[2] = biological target: BACE2 (Rattus norvegicus (Rat), UniProt Q6IE75); assay: Assay for BACE inhibition by measuring cellular TMEM27 cleavage; assay type: cell-based; settings: INS-TMEM27 (INS1e rat cell line, inducible hTMEM27); shed TMEM27 by ELISA
Text: Assay for BACE Inhibition by Measuring Cellular TMEM27 Cleavage:
The assay uses the principle of inhibition of human TMEM27 cleavage by endogenous cellular BACE2 in the Ins1e rat cell line and shedding from the cell surface into the culture medium, followed by detection in an ELISA assay Inhibition of BACE2 prevents the cleavage and shedding in a dose-dependent manner.
The stable cell line “INS-TMEM27” represents an INS1e-derived cell line with inducible expression (using the TetOn system) of full-length hTMEM27 in a doxycycline-dependent manner. The cells are cultured throughout the experiment in RPMI1640+Glutamax (Invitrogen) Penicillin/Streptomycin, 10% Fetal bovine serum, […], […], 100 micrograms/ml G418 and 100 microgram/ml hygromycin and are grown inadherent culture at 37° C. in a standard CO2 cell culture incubator.
INS-TMEM27 cells are seeded in 96-well plates. After 2 days in culture, BACE2 inhibitor is added in a range of concentrations as required by the assay and after a further two hours, doxycycline is added to a final concentration of 500 ng/ml. The cells are incubated for a further 46 hours and the supernatant harvested for detection of shed TMEM27.
An ELISA assay (using a pair of mouse anti-human-TMEM27 antibodies, raised against the extracellular domain of TMEM27) is used for detection of TMEM27 in the culture medium. An EC50 for BACE2 inhibition is calculated using the ELISA readout for each inhibitor concentration with standard curve-fitting software such as XLFit for the Excel spreadsheet program.

Chain of BACE2 (Q6IE75 63-514): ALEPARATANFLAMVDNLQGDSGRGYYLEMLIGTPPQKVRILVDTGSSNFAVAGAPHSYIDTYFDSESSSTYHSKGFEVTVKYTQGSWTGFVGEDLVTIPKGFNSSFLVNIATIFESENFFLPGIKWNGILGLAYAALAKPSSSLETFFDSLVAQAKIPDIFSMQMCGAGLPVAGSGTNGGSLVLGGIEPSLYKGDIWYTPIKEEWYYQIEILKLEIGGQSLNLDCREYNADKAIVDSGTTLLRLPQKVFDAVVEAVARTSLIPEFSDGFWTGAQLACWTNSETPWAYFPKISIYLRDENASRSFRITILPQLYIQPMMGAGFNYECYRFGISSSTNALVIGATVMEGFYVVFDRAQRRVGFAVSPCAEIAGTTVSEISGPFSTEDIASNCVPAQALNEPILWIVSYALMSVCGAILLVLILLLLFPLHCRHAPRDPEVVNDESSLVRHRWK
Chain of BACE1 (P56817 46-501): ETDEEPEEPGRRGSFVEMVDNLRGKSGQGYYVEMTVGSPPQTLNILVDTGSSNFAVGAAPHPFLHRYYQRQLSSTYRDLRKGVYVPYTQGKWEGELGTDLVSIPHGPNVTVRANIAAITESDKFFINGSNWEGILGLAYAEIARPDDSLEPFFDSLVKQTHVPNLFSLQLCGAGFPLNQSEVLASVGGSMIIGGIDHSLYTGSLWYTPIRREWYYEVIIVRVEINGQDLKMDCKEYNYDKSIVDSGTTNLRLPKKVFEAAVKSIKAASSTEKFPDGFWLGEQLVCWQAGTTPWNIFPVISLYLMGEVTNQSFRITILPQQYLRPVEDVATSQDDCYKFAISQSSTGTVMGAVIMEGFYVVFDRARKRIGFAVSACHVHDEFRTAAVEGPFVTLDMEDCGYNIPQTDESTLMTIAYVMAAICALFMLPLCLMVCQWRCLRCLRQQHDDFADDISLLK

Row | SMILES | IC50 [1] [nM] | IC50 [2] [nM]
1 | C[C@]1(F)COC(N)=N[C@]1(C)c1cc(NC(=O)c2ccc(C#N)cn2)ccc1F [Example 38, 5-Cyano-pyridine-2-carboxylic acid [3-((4R,5R)-2-amino-5-fluoro-4,5-dimethyl-5,6-dihydro-4H-[1,3]oxazin-4-yl)-4-fluoro-phenyl]-amide] | 0.4 | 23
2 | Cc1cc(C(=O)Nc2ccc(F)c([C@@]3(C)N=C(N)OC[C@@H]3F)c2)c(C)o1 [Example 18, 2,5-Dimethyl-furan-3-carboxylic acid [3-((4R,5R)-2-amino-5-fluoro-4-methyl-5,6-dihydro-4H-[1,3]oxazin-4-yl)-4-fluoro-phenyl]-amide] | 8 | 20
3 | COc1ccc(C(=O)Nc2ccc(F)c([C@@]3(C)N=C(N)OC[C@@H]3F)c2)nc1 [Example 13, 5-Methoxy-pyridine-2-carboxylic acid [3-((4R,5R)-2-amino-5-fluoro-4-methyl-5,6-dihydro-4H-[1,3]oxazin-4-yl)-4-fluoro-phenyl]-amide] | 4 | 65
4 | C[C@]1(F)COC(N)=N[C@]1(C)c1cc(NC(=O)c2ccc(F)cn2)ccc1F [Example 42, 5-Fluoro-pyridine-2-carboxylic acid [3-((4R,5R)-2-amino-5-fluoro-4,5-dimethyl-5,6-dihydro-4H-[1,3]oxazin-4-yl)-4-fluoro-phenyl]-amide] | 11 | 74
5 | C[C@]1(c2cc(NC(=O)C3CC3)ccc2F)N=C(N)OC[C@@H]1F [Example 32, Cyclopropanecarboxylic acid [3-((4R,5R)-2-amino-5-fluoro-4-methyl-5,6-dihydro-4H-[1,3]oxazin-4-yl)-4-fluoro-phenyl]-amide] | 730 | 
6 | C[C@]1(F)COC(N)=N[C@]1(C)c1cc(NC(=O)c2ncc(Cl)cc2Cl)ccc1F [Example 39, 3,5-Dichloro-pyridine-2-carboxylic acid [3-((4R,5R)-2-amino-5-fluoro-4,5-dimethyl-5,6-dihydro-4H-[1,3]oxazin-4-yl)-4-fluoro-phenyl]-amide] | 2 | 4
7 | C[C@]1(c2cc(NC(=O)c3ccc(Cl)cn3)ccc2F)N=C(N)OC[C@H]1F [Example 34, 5-Chloro-pyridine-2-carboxylic acid [3-((4R,5S)-2-amino-5-fluoro-4-methyl-5,6-dihydro-4H-[1,3]oxazin-4-yl)-4-fluoro-phenyl]-amide] | 42 | 
8 | Cc1cc(C(=O)Nc2ccc(F)c([C@@]3(C)N=C(N)OC[C@@H]3F)c2)nn1C [Example 30, 1,5-Dimethyl-1H-pyrazole-3-carboxylic acid [3-((4R,5R)-2-amino-5-fluoro-4-methyl-5,6-dihydro-4H-[1,3]oxazin-4-yl)-4-fluoro-phenyl]-amide] | 760 | 
9 | C[C@]1(c2cc(NC(=O)c3cnc(OCF)cn3)ccc2F)N=C(N)OC[C@@H]1F [Example 10, 5-Fluoromethoxy-pyrazine-2-carboxylic acid [3-((4R,5R)-2-amino-5-fluoro-4-methyl-5,6-dihydro-4H-[1,3]oxazin-4-yl)-4-fluoro-phenyl]-amide] | 24 | 
10 | C[C@]1(c2cc(NC(=O)c3ccc(OCC(F)(F)C(F)(F)F)cn3)ccc2F)N=C(N)OC[C@@H]1F [Example 25, 5-(2,2,3,3,3-Pentafluoro-propoxy)-pyridine-2-carboxylic acid [3-((4R,5R)-2-amino-5-fluoro-4-methyl-5,6-dihydro-4H-[1,3]oxazin-4-yl)-4-fluoro-phenyl]-amide] | 52 | 
11 | C[C@]1(c2cc(NC(=O)c3ccc(Cl)cn3)ccc2F)N=C(N)OC[C@@H]1OCC(F)(F)F [Example 45, 5-Chloro-pyridine-2-carboxylic acid {3-[(4R,5R)-2-amino-4-methyl-5-(2,2,2-trifluoro-ethoxy)-5,6-dihydro-4H-[1,3]oxazin-4-yl]-4-fluoro-phenyl}-amide] | 1 | 61
12 | C[C@]1(c2cc(NC(=O)c3ccc(OCC(F)F)cn3)ccc2F)N=C(N)OC[C@@H]1F [Example 21, 5-(2,2-Difluoro-ethoxy)-pyridine-2-carboxylic acid [3-((4R,5R)-2-amino-5-fluoro-4-methyl-5,6-dihydro-4H-[1,3]oxazin-4-yl)-4-fluoro-phenyl]-amide] | 13 | 
13 | C[C@]1(c2cc(NC(=O)c3ccc(OCC(F)(F)F)cn3)ccc2F)N=C(N)OC[C@@H]1OCC(F)(F)F [Example 49, 5-(2,2,2-Trifluoro-ethoxy)-pyridine-2-carboxylic acid {3-[(4R,5R)-2-amino-4-methyl-5-(2,2,2-trifluoro-ethoxy)-5,6-dihydro-4H-[1,3]oxazin-4-yl]-4-fluoro-phenyl}-amide] | 21 | 
14 | CC#CCOc1cnc(C(=O)Nc2ccc(F)c([C@@]3(C)N=C(N)OC[C@]3(C)F)c2)cn1 [Example 50, 5-But-2-ynyloxy-pyrazine-2-carboxylic acid [3-((4R,5R)-2-amino-5-fluoro-4,5-dimethyl-5,6-dihydro-4H-[1,3]oxazin-4-yl)-4-fluoro-phenyl]-amide] | 0.1 | 
15 | C[C@]1(c2cc(NC(=O)c3cnc(OCC(F)F)cn3)ccc2F)N=C(N)OC[C@@H]1F [Example 19, 5-(2,2-Difluoro-ethoxy)-pyrazine-2-carboxylic acid [3-((4R,5R)-2-amino-5-fluoro-4-methyl-5,6-dihydro-4H-[1,3]oxazin-4-yl)-4-fluoro-phenyl]-amide] | 8 | 
16 | C[C@]1(c2cc(NC(=O)c3cncs3)ccc2F)N=C(N)OC[C@@H]1F [Example 29, Thiazole-5-carboxylic acid [3-((4R,5R)-2-amino-5-fluoro-4-methyl-5,6-dihydro-4H-[1,3]oxazin-4-yl)-4-fluoro-phenyl]-amide] | 250 | 
17 | C[C@]1(c2cc(NC(=O)c3ncc(C(F)(F)F)cc3F)ccc2F)N=C(N)OC[C@@H]1F [Example 12, 3-Fluoro-5-trifluoromethyl-pyridine-2-carboxylic acid [3-((4R,5R)-2-amino-5-fluoro-4-methyl-5,6-dihydro-4H-[1,3]oxazin-4-yl)-4-fluoro-phenyl]-amide] | 4 | 
18 | C[C@]1(c2cc(NC(=O)c3ccc(OCC(F)(F)C(F)F)cn3)ccc2F)N=C(N)OC[C@@H]1F [Example 24, 5-(2,2,3,3-Tetrafluoro-propoxy)-pyridine-2-carboxylic acid [3-((4R,5R)-2-amino-5-fluoro-4-methyl-5,6-dihydro-4H-[1,3]oxazin-4-yl)-4-fluoro-phenyl]-amide] | 17 | 
19 | C[C@]1(c2cc(NC(=O)C3(C#N)CC3)ccc2F)N=C(N)OC[C@@H]1F [Example 31, 1-Cyano-cyclopropanecarboxylic acid [3-((4R,5R)-2-amino-5-fluoro-4-methyl-5,6-dihydro-4H-[1,3]oxazin-4-yl)-4-fluoro-phenyl]-amide] | 75 | 
20 | C[C@]1(c2cc(NC(=O)c3ccc(OCC4CC4)cn3)ccc2F)N=C(N)OC[C@@H]1F [Example 23, 5-Cyclopropylmethoxy-pyridine-2-carboxylic acid [3-((4R,5R)-2-amino-5-fluoro-4-methyl-5,6-dihydro-4H-[1,3]oxazin-4-yl)-4-fluoro-phenyl]-amide] | 15 | 
21 | C[C@]1(c2cc(NC(=O)c3ccc(OC(F)F)cn3)ccc2F)N=C(N)OC[C@@H]1F [Example 6, 5-Difluoromethoxy-pyridine-2-carboxylic acid [3-((4R,5R)-2-amino-5-fluoro-4-methyl-5,6-dihydro-4H-[1,3]oxazin-4-yl)-4-fluoro-phenyl]-amide] | 2 | 
